# Measurements as given in patent US7338977B2, “Anti-viral compounds” (Aids Care Pharma Limited, priority 2003, dated 2008).
# Experiments:
# HIV = conditions: cited from earlier work; for REDUCTION IN VIRAL LOAD: patients, drug used on its own
# [1] = human, in vivo; cited from earlier work
# wild-type HIV-1 (111a) = test: Test 2: syncytium formation in HIV-1 infected CEM cell cultures; format: cell-based; conditions: CEM cells, 4 days at 37° C., syncytium formation inhibited by 50%; for EC50: Human immunodeficiency virus 1, CCRF-CEM, 96 h
# Protocol: (§1) Two tests were performed: Test 1 was performed using infected blood, while Test 2 used cell cultures.
# The results shown in Table 1 for test 2 were obtained by testing cell cultures in accordance with the following procedure.
# CEM cells were suspended at approximately 250,000 cells per milliliter of culture medium and infected with wild-type HIV-1 (111a) at approximately 100 times the 50% cell culture infective dose (CCID50) per milliliter. Then 100 μl of the infected cell suspensions were added to 200 μl microtiter plate wells containing 100 μl of an appropriate dilution of the test compounds. After 4 days incubation at 37° C. the cell cultures were microscopically examined for syncytium formation.
# [2] = biological target: T1, viral envelope protein gp120 interaction with the cellular receptor protein CD4 (Human immunodeficiency virus type 1 group M subtype B, UniProt P04578); test: biochemical; format: binding, HIV; conditions: for activity in words, compared with AC-1: summary of Table 1, both tests
# T1 construct: viral envelope protein gp120
# Protocol: as §1
# All stocks solutions were made 25 mM in distilled water and tested at same concentrations.
# The procedure was carried out as follows: • 1 Plastic plates were coated with cellular receptor protein CD4. • 2 The plates were washed well before adding a predetermined, appropriate quantity of viral envelope protein gp120 for binding to CD4. • 3 To see inhibition by compounds, different concentrations were added a few minutes before adding gp120. • 4 The mixture was incubated at 37° C. for binding. • 5 The plates were then flashed well and bound gp120 was detected by reaction with anti-HIV antibodies, incubated for 12 hours at 4° C. • 6 The amount of antibody bound was detected by adding anti-Human antibodies attached to an enzyme horse raddish peroxidase. • 7 After another incubation and wash, the quantity of the enzyme was measured by adding substrate o-phenyl diamine (OPD). • 8 The colour developed was read at 492 nm. • 9 All incubations took three days for adding different reagents. The percentage of inhibition by compounds, was calculated from the standard curve obtained by using different dilutions of gp120 alone. Test 2
# [3] = cited from earlier work
# HIV-1 [4] = conditions: cells protected from HIV infection, cell cultures; cited from earlier work
# HIV-1 [5] = test: Anti-HIV EC50 in cell cultures (benchmark AZT); conditions: in vitro
# Text: The antigen Agp120 assay—the virus related antigen—is related to the number of virus particles produced by measuring glycoprotein gp120 in infected cell cultures.
# The therapeutic index is selected so as not to damage healthy cells.
# cell growth = conditions: cited from earlier work
compound,measurement,setting,value
CC(C)(C)NC(=O)[C@@H]1CN(Cc2cccnc2)CCN1C[C@@H](O)C[C@@H](Cc1ccccc1)C(=O)N[C@H]1c2ccccc2C[C@H]1O [Indinavir],REDUCTION IN VIRAL LOAD,HIV,99%
CC(C)Nc1cccnc1N1CCN(C(=O)c2cc3cc(NS(C)(=O)=O)ccc3[nH]2)CC1 [Delaviridine],REDUCTION IN VIRAL LOAD,HIV,50–90%
same,SIDE EFFECTS,[1],skin reaction
Nc1ccn([C@@H]2CS[C@H](CO)O2)c(=O)n1 [Lamivudine],SIDE EFFECTS,[1],gastrointestinal
Cc1ccnc2c1NC(=O)c1cccnc1N2C1CC1 [Nevirapinc],REDUCTION IN VIRAL LOAD,HIV,50–90%
same,SIDE EFFECTS,[1],skin reaction
CC(C)c1nc(CN(C)C(=O)N[C@H](C(=O)N[C@@H](Cc2ccccc2)C[C@H](O)[C@H](Cc2ccccc2)NC(=O)OCc2cncs2)C(C)C)cs1 [Ritonavir],REDUCTION IN VIRAL LOAD,HIV,99%
same,SIDE EFFECTS,[1],"diarrhoea nausea,"
O=C(O)COc1cc(OCC(=O)O)c2cc1C(c1ccc(F)cc1)c1cc(c(OCC(=O)O)cc1OCC(=O)O)C(c1ccc(F)cc1)c1cc(c(OCC(=O)O)cc1OCC(=O)O)C(c1ccc(F)cc1)c1cc(c(OCC(=O)O)cc1OCC(=O)O)C2c1ccc(F)cc1 (centres unmarked) [BC070202A],EC50,wild-type HIV-1 (111a),≥ 20 µg/mL
same,EC50,[2],75 µM
same,% inhibition of gp120/CD4 binding,[2]; Conc 12.5 um,24%
same,% inhibition of gp120/CD4 binding,[2]; Conc 25 um,24%
same,% inhibition of gp120/CD4 binding,[2]; Conc 50 um,31%
same,% inhibition of gp120/CD4 binding,[2]; Conc 100 um,54%
same,"activity in words, compared with AC-1",[2],much less active than the compound AC-1
dodecapotassium acetate of p-bromopyrogallol P—F-phenyl tetramer [AC-1],Test 2 EC50,wild-type HIV-1 (111a),4 µg/mL
same,% inhibition of gp120/CD4 binding,[2]; Conc 0.39 um,48%
same,% inhibition of gp120/CD4 binding,[2]; Conc 0.78 um,55%
same,% inhibition of gp120/CD4 binding,[2]; Conc 1.56 um,62%
same,% inhibition of gp120/CD4 binding,[2]; Conc 3.125 um,70%
same,% inhibition of gp120/CD4 binding,[2]; Conc 6.25 um,82%
same,% inhibition of gp120/CD4 binding,[2]; Conc 12.5 um,86%
same,% inhibition of gp120/CD4 binding,[2]; Conc 25 um,91%
same,% inhibition of gp120/CD4 binding,[2]; Conc 50 um,93%
same,% inhibition of gp120/CD4 binding,[2]; Conc 100 um,96%
dextran sulphate,stability after oral intake,[3]; before entry into the plasma,degrades after oral intake before entry into the plasma
same,oral absorption,[3],poorly absorbed orally
CC(C)(C)NC(=O)[C@@H]1C[C@@H]2CCCC[C@@H]2CN1C[C@@H](O)[C@H](Cc1ccccc1)NC(=O)[C@H](CC(N)=O)NC(=O)c1ccc2ccccc2n1 [Saquinavir],REDUCTION IN VIRAL LOAD,HIV,99%
same,SIDE EFFECTS,[1],"loose stools, nausea,"
Nc1nc(NC2CC2)c2ncn([C@H]3C=C[C@@H](CO)C3)c2n1 [Abacavir],REDUCTION IN VIRAL LOAD,HIV,50–90%
Nc1ccn([C@H]2CC[C@@H](CO)O2)c(=O)n1 [Zalcitabine],REDUCTION IN VIRAL LOAD,HIV,50–90%
O=C(O)COc1c(O)c2cc(c1O)C(c1ccc(F)cc1)c1cc(c(O)c(OCC(=O)O)c1O)C(c1ccc(F)cc1)c1cc(c(O)c(OCC(=O)O)c1O)C(c1ccc(F)cc1)c1cc(c(O)c(OCC(=O)O)c1O)C2c1ccc(F)cc1 (centres unmarked) [BC130202A],EC50,wild-type HIV-1 (111a),10 µg/mL
same,EC50,[2],5 µM
same,% inhibition of gp120/CD4 binding,[2]; Conc 1.56 um,19%
same,% inhibition of gp120/CD4 binding,[2]; Conc 3.125 um,32%
same,% inhibition of gp120/CD4 binding,[2]; Conc 6.25 um,46%
same,% inhibition of gp120/CD4 binding,[2]; Conc 12.5 um,56%
same,% inhibition of gp120/CD4 binding,[2]; Conc 25 um,70%
same,% inhibition of gp120/CD4 binding,[2]; Conc 50 um,82%
same,% inhibition of gp120/CD4 binding,[2]; Conc 100 um,90%
same,"activity in words, compared with AC-1",[2],active
Cc1c(O)cccc1C(=O)N[C@@H](CSc1ccccc1)[C@H](O)CN1C[C@H]2CCCC[C@H]2C[C@H]1C(=O)NC(C)(C)C [Nelfinavir],REDUCTION IN VIRAL LOAD,HIV,99%
same,SIDE EFFECTS,[1],"diarrohea, nausea"
O=C1Nc2ccc(Cl)cc2[C@@](C#CC2CC2)(C(F)(F)F)O1 [Efavirenz],REDUCTION IN VIRAL LOAD,HIV,50–90%
same,SIDE EFFECTS,[1],skin reaction
Cc1cn([C@H]2C[C@H](N=[N+]=[N-])[C@@H](CO)O2)c(=O)[nH]c1=O [Zidovudine],REDUCTION IN VIRAL LOAD,HIV,50–90%
same,benefit in treating HIV-infected individuals,HIV; used by itself,no benefits in treating HIV-infected individuals
same,EC50,HIV-1 [4],~0.016 µM
same,Therapeutic index (TC50/EC50 ratio),HIV-1 [5],"> 62,500"
same,CC50,cell growth,> 1000 µM
CC(C)CN(C[C@@H](O)[C@H](Cc1ccccc1)NC(=O)O[C@H]1CCOC1)S(=O)(=O)c1ccc(N)cc1 [Amprenavir],REDUCTION IN VIRAL LOAD,HIV,99%
same,SIDE EFFECTS,[1],severe rash
O=c1[nH]cnc2c1ncn2[C@H]1CC[C@@H](CO)O1 [Didanosine],REDUCTION IN VIRAL LOAD,HIV,50–90%
same,SIDE EFFECTS,[1],"peripheral neuropathy, nausea vomiting, pancreatis"
Cc1cn([C@H]2C=C[C@@H](CO)O2)c(=O)[nH]c1=O [Stavudine],REDUCTION IN VIRAL LOAD,HIV,50–90%
same,SIDE EFFECTS,[1],peripheral neuropathy
